Key:
[1] = tested on: Meerschweinchen-Papillarmuskel; assay: Effect on contraction force of the heart, guinea pig papillary muscle; assay type: cell-based; conditions: contraction force (negative inotropy); for IC20: read-out: C20 CF
Text: Die Wirkung auf die Kontraktionskraft des Herzens wurde am Meerschweinchen-Papillarmuskel untersucht. Hämodynamische Studien wurden bei gesunden, wie auch akut infarzierten Hunden durchgeführt.

[2] = tested on: Purkinje-Fasern aus Hundeherzen; assay: Electrophysiological studies on Purkinje fibres from dog hearts (Vmax); assay type: cell-based, Hund; conditions: for IC20 / C20 Vmax: Purkinje-Fasern aus Hundeherzen; for IC20: read-out: C20 Vmax; for Prematurity Faktor Vmax: Vorzeitigkeitsindex, activity on premature extrasystoles; for Rate-Faktor von Vmax: specifically stronger activity at higher frequencies
Text: Die antiarrhythmische Wirksamkeit der erfindungsgemäßen Verbindungen wurde sowohl anhand von elektrophysiologischen Studien an Purkinje-Fasern aus Hundeherzen sowie mit Hilfe von Ouabaininduzierten ventrikulären Tachykardien bei Hunden bestimmt. […]
Als zusätzliches Kriterium wurde der Vorzeitigkeitsindex (Prematurity-Faktor) bestimmt, der die erwünschte Wirksamkeit der erfindungsgemäßen Verbindungen bei vorzeitigen Extrasystolen charakterisiert.

Row | SMILES | IC20 [1] [µM] | IC20 [2] [µM] | Prematurity Faktor Vmax [2] | Rate-Faktor von Vmax [2] | C20 CF [1] | C20 Vmax [2]
1 | CCCNCC(O)COc1cc(CCC(=O)c2ccc(OC)c(OC)c2)ccc1OC.Cl (stereo not drawn) [Beispiel 22, 1-(3,4-Dimethoxyphenyl)-3-[3′-(2-hydroxy-3-n-propylaminopropoxy)-4′-methoxyphenyl]-1-propanon-hydrochlorid] | 7 | 3.2 | 0,99 | 0,97 |  | 
2 | CCC(C)(C)NCC(O)COc1cccc(CCC(=O)c2c(C)cc(C)cc2C)c1.Cl (stereo not drawn) [Beispiel 11, 1-(2,4,6-Trimethylphenyl)-3-[3′-(2-hydroxy-3-tert.-pentylaminopropoxy)-phenyl]-1-propanon-hydrochlorid] | 10 | 3.3 | 0,95 | 1,15 |  | 
3 | CCCNCC(O)COc1cc(CCC(=O)c2ccc(C)cc2)ccc1OC.Cl (stereo not drawn) [Beispiel 37, 1-(4-Methylphenyl)-3-[3′-(2-hydroxy-3-n-propylaminopropoxy)-4′-methoxyphenyl]-1-propanon-hydrochlorid] | 5 | 2.6 | 0,94 | 1,22 |  | 
4 | CCC(C)(C)NCC(O)COc1cc(CCC(=O)c2ccc(OC)c(OC)c2)ccc1OC.Cl (stereo not drawn) [Beispiel 27, 1-(3,4-Dimethoxyphenyl)-3-[3′-(2-hydroxy-3-tert.-pentylaminopropoxy)-4′-methoxyphenyl]-1-propanon-hydrochlorid] | 15 | 3.5 | 1,05 | 1,25 |  | 
5 | COc1cc(C(=O)CCc2cccc(OCC(O)CNC(C)C)c2)cc(OC)c1OC.Cl (stereo not drawn) [Beispiel 9, 1-(3,4,5-Trimethoxyphenyl)-3-[3′-(2-hydroxy-3-isopropylaminopropoxy)-phenyl]-1-propanon-hydrochlorid] | 15 | 9.1 | 1,01 | 1,26 |  | 
6 | COc1ccc(CCC(=O)c2ccc(C)cc2)cc1OCC(O)CNC(C)(C)C.Cl (stereo not drawn) [Beispiel 39, 1-(4-Methylphenyl)-3-[3′-(2-hydroxy-3-tert.-butylaminopropoxy)-4′-methoxyphenyl]-1-propanon-hydrochlorid] | 4 | 1.2 | 0,94 | 1,51 |  | 
7 | COc1ccc(CCC(=O)c2ccccc2OC)cc1OCC(O)CNC(C)(C)C.Cl (stereo not drawn) [Beispiel 35, 1-(2-Methoxyphenyl)-3-[3′-(2-hydroxy-3-tert.-butylaminopropoxy)-4′-methoxyphenyl]-1-propanon-hydrochlorid] | 10 | 3 | 0,91 |  |  | 
8 | COc1ccc(CCC(=O)c2cc(OC)c(OC)c(OC)c2)cc1OCC(O)CNC(C)C.Cl (stereo not drawn) [Beispiel 30, 1-(3,4,5-Trimethoxyphenyl)-3-[3′-(2-hydroxy-3-isopropylaminopropoxy)-4′-methoxyphenyl]-1-propanon-hydrochlorid] | 5 | 2.5 | 1,01 | 1,13 |  | 
9 | CCC(C)(C)NCC(O)COc1cccc(CCC(=O)c2cc(OC)c(OC)c(OC)c2)c1.Cl (stereo not drawn) [Beispiel 8, 1-(3,4,5-Trimethoxyphenyl)-3-[3′-(2-hydroxy-3-tert.-pentylaminopropoxy)-phenyl]-1-propanon-hydrochlorid] | 3 | 1.6 |  | 5,00 |  | 
10 | Cc1cc(C)c(C(=O)CCc2cccc(OCC(O)CNC(C)C)c2)c(C)c1.Cc1cc(C)c(C(=O)CCc2cccc(OCC(O)CNC(C)C)c2)c(C)c1.O=C(O)C(=O)O (stereo not drawn) [Beispiel 15, 1-(2,4,6-Trimethylphenyl)-3-[3′-(2-hydroxy-3-isopropylaminopropoxy)-phenyl]-1-propanon-semi-oxalat] |  |  | 0,94 | 1,09 | 7,0 µM | 1,0 µM
11 | CCCNCC(O)COc1ccccc1C(=O)CCc1ccccc1 (stereo not drawn) [A, Propafenon, reference compound] |  |  | 0,97 | 1,08 | 5,3 µM | 3,7 µM
12 | COc1ccc(C(=O)CCc2ccc(OC)c(OCC(O)CNC(C)(C)C)c2)cc1OC.Cl (stereo not drawn) [Beispiel 25, 1-(3,4-Dimethoxyphenyl)-3-[3′-(2-hydroxy-3-tert.-butylaminopropoxy)-4′-methoxyphenyl]-1-propanon-hydrochlorid] | 6 | 2.4 | 1,01 | 1,21 |  | 
13 | COc1ccc(CCC(=O)c2cc(OC)c(OC)c(OC)c2)cc1OCC(O)CNC1CCCCC1.Cl (stereo not drawn) [Beispiel 32, 1-(3,4,5-Trimethoxyphenyl)-3-[3′-(2-hydroxy-3-cyclohexylaminopropoxy)-4′-methoxyphenyl]-1-propanon-hydrochlorid] | 9 | 1.1 | 1,05 | 1,25 |  | 
14 | CCCNCC(O)COc1cccc(CCC(=O)c2ccc(OC)cc2)c1.Cl (stereo not drawn) [Beispiel 7, 1-(4-Methoxyphenyl)-3-[3′-(2-hydroxy-3-n-propylaminopropoxy)-phenyl]-1-propanon-hydrochlorid] | 6 | 2.9 | 0,90 | 1,21 |  | 
15 | Cc1cc(C)c(C(=O)CCc2cccc(OCC(O)CNC(C)(C)C)c2)c(C)c1.Cl (stereo not drawn) [Beispiel 14, 1-(2,4,6-Trimethylphenyl)-3-[3′-(2-hydroxy-3-tert.-butylaminopropoxy)-phenyl]-1-propanon-hydrochlorid] | 20 | 11.9 | 0,95 | 1,47 |  | 
16 | COc1ccc(C(=O)CCc2ccc(OC)c(OCC(O)CNC(C)C)c2)cc1OC.Cl (stereo not drawn) [Beispiel 23, 1-(3,4-Dimethoxyphenyl)-3-[3′-(2-hydroxy-3-isopropylaminopropoxy)-4′-methoxyphenyl]-1-propanon-hydrochlorid] | 6 | 2.2 | 1,05 | 5,00 |  | 
17 | CCCNCC(O)COc1cc(CCC(=O)c2ccc3ccccc3c2)ccc1OC.Cl (stereo not drawn) [Beispiel 48, 1-(2-Napthyl)-3-[3′-(2-hydroxy-3-n-propylaminopropoxy)-4′-methoxyphenyl]-1-propanon-hydrochlorid] |  |  | 0,90 | 1,43 | 9,0 µM | 1,1 µM
18 | COc1ccc(CCC(=O)c2ccc(C)cc2)cc1OCC(O)CN1CCCCC1.Cl (stereo not drawn) [Beispiel 40, 1-(4-Methylphenyl)-3-[3′-(2-hydroxy-3-piperidinopropoxy)-4′-methoxyphenyl]-1-propanon-hydrochlorid] | 5 | 1.3 | 0,94 | 1,33 |  | 
19 | CCC(C)(C)NCC(O)COc1cc(CCC(=O)c2ccc3ccccc3c2)ccc1OC.Cl (stereo not drawn) [Beispiel 47, 1-(2-Naphthyl)-3-[3′-(2-hydroxy-3-tert.-pentylaminopropoxy)-4′-methoxyphenyl]-1-propanon-hydrochlorid] | 17 | 6.1 | 1,10 | 1,22 |  | 
20 | COc1ccc(CCC(=O)c2ccc3ccccc3c2)cc1OCC(O)CNC(C)C.Cl (stereo not drawn) [Beispiel 49, 1-(2-Naphthyl)-3-[3′-(2-hydroxy-3-isopropylaminopropoxy)-4′-methoxyphenyl]-1-propanon-hydrochlorid] | 14 | 12.1 | 0,50 | 4,00 |  | 
21 | Cc1cc(C)c(CC(=O)Cc2cccc(OCC(O)CNC(C)(C)C)c2)c(C)c1.Cl (stereo not drawn) [Beispiel 17, 1-(2,4,6-Trimethylphenyl)-3-[3′-(2-hydroxy-3-tert.-butylaminopropoxy)-phenyl]-propanon-hydrochlorid] | 15 | 1.7 | 0,99 | 1,12 |  | 
22 | CCCNCC(O)COc1cc(CCC(=O)c2c(C)cc(C)cc2C)ccc1OC.O=C(O)C(=O)O (stereo not drawn) [Beispiel 44, 1-(2,4,6-Trimethylphenyl)-3-[3′-(2-hydroxy-3-n-propylaminopropoxy)-4′-methoxyphenyl]-1-propanon-oxalat] | 14 | 1.7 | 1,10 | 1,03 |  | 
23 | COc1cc(C(=O)CCc2cccc(OCC(O)CNC(C)(C)C)c2)cc(OC)c1OC.Cl (stereo not drawn) [Beispiel 10, 1-(3,4,5-Trimethoxyphenyl)-3-[3′-(2-hydroxy-3-tert.-butylaminopropoxy)-phenyl]-1-propanon-hydrochlorid] | 5 | 2.6 | 0,99 | 1,17 |  | 

— EP0297435A2, “Aminopropanol derivatives of 3-(3'-hydroxyphenyl)-1-propanone, process for their preparation and medicines containing these compounds” (Helopharm W. Petrik GmbH & Co.KG., priority 1987, dated 1989)
